ChEMBL document CHEMBL3132769, “Fragment growing to retain or alter the selectivity of anchored kinase hinge-binding fragments” (Medchemcomm, 2014)

Key:
[1] = target: Protein kinase C gamma type (Homo sapiens) (UniProt P05129); experiment: Inhibition of human truncated PKC gamma expressed in baculovirus assessed as substrate phosphorylation using fluorescence-labelled peptides as substrate at 0.2 uM after 90 mins by microfluidic peptide phosphorylation assay
[2] = target: Platelet-derived growth factor receptor alpha (Homo sapiens) (UniProt P16234); experiment: Inhibition of human PDGFR alpha catalytic domain expressed in baculovirus assessed as substrate phosphorylation using fluorescence-labelled peptides as substrate at 0.2 uM after 90 mins by microfluidic peptide phosphorylation assay
Sequence of Platelet-derived growth factor receptor alpha (Homo sapiens) (P16234 whole entry, the tested form may be a part): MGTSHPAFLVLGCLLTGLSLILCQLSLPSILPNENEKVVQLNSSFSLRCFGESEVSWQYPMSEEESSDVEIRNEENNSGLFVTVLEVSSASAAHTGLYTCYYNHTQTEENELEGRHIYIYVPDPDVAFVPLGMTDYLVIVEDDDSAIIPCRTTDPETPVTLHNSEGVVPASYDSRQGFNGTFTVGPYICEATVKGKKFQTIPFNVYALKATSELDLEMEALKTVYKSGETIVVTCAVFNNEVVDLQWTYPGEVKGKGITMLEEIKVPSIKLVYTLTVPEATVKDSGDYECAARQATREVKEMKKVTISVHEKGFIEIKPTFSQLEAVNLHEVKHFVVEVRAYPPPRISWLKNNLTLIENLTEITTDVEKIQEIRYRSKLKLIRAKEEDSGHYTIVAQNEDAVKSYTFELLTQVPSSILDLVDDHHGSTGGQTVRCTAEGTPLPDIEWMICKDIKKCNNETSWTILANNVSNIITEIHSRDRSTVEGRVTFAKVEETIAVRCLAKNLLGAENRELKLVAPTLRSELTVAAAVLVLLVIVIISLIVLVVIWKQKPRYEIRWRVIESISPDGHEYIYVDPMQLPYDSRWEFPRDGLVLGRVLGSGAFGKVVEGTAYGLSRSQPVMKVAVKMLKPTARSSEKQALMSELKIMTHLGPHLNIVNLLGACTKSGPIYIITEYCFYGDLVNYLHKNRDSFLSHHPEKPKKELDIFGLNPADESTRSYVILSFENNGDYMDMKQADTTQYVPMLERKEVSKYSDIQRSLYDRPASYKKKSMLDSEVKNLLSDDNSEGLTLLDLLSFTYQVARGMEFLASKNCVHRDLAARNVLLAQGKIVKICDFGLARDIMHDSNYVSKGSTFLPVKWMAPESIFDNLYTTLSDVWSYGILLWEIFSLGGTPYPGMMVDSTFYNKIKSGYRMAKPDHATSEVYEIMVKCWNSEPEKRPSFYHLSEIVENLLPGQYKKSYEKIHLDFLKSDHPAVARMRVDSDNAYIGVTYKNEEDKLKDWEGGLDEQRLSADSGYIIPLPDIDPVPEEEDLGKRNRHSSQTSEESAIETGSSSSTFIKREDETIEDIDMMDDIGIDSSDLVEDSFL

[3] = target: Serine/threonine-protein kinase Chk2 (Homo sapiens) (UniProt O96017); experiment: Inhibition of human full length CHK2 expressed in baculovirus assessed as substrate phosphorylation using fluorescence-labelled peptides as substrate at 2 uM after 90 mins by microfluidic peptide phosphorylation assay
Sequence of Serine/threonine-protein kinase Chk2 (Homo sapiens) (O96017 whole entry): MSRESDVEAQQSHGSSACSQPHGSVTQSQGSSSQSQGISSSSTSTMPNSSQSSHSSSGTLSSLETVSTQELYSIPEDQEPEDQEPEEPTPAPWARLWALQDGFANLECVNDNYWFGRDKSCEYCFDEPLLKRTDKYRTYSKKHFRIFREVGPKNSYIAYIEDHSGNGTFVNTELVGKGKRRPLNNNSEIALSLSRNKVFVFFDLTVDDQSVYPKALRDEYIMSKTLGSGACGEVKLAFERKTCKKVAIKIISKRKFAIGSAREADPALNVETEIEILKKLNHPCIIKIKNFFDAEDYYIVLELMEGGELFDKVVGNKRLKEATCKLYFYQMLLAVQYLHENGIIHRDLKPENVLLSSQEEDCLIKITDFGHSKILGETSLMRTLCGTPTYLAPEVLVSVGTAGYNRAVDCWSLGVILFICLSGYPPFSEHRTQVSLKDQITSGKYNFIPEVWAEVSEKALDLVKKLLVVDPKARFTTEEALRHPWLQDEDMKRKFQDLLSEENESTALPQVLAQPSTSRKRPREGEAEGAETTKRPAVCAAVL

[4] = target: T1, Serine/threonine-protein kinase D3 (Homo sapiens) (UniProt O94806); experiment: Inhibition of human full length PKD3 expressed in baculovirus assessed as substrate phosphorylation using fluorescence-labelled peptides as substrate at 9 uM after 90 mins by microfluidic peptide phosphorylation assay
T1 sequence (whole entry): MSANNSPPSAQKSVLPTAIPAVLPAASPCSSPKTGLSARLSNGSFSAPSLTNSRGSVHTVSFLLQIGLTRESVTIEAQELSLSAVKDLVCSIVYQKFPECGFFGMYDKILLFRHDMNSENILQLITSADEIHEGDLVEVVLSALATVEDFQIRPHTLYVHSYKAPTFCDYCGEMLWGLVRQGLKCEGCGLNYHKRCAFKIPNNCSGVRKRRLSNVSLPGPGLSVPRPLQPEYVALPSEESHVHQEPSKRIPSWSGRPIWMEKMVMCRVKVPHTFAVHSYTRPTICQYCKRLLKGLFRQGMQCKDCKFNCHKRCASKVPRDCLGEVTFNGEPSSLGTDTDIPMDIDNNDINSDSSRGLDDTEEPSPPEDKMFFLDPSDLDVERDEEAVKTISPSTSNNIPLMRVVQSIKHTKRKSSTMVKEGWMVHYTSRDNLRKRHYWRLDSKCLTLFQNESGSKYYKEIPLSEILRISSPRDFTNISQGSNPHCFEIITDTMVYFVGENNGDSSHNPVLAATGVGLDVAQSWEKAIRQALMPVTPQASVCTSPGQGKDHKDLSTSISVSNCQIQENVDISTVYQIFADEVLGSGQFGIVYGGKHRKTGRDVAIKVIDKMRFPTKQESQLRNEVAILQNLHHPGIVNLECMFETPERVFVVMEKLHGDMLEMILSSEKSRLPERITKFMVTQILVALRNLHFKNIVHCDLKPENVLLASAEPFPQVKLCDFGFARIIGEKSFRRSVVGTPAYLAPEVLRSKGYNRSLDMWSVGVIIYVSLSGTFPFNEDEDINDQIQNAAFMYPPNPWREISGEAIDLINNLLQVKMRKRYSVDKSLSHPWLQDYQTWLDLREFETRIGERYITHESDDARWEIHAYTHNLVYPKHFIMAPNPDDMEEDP

[5] = target: T2, cGMP-dependent protein kinase 1 (Homo sapiens) (UniProt Q13976); experiment: Inhibition of human full length PKG-1a expressed in baculovirus assessed as substrate phosphorylation using fluorescence-labelled peptides as substrate at 9 uM after 90 mins by microfluidic peptide phosphorylation assay
T2 sequence (whole entry): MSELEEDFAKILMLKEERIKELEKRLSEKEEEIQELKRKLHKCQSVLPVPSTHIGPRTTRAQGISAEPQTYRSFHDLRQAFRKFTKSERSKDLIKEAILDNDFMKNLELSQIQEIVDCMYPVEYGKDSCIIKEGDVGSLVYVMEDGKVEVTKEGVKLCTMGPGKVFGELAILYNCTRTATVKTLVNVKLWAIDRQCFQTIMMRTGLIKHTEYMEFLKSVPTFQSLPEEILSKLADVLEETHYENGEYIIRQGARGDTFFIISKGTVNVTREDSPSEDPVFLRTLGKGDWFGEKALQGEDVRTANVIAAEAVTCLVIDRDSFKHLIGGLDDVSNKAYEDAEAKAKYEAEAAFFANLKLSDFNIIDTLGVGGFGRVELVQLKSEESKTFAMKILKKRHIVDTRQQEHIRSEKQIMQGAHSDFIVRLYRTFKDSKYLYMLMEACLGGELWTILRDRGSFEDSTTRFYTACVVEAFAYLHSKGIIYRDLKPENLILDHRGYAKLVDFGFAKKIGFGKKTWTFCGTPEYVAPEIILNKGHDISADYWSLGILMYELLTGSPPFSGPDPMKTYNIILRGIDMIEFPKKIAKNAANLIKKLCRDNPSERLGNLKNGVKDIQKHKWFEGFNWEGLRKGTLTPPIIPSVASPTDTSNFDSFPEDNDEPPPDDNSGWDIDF

[6] = target: Platelet-derived growth factor receptor alpha (Homo sapiens) (UniProt P16234); experiment: Inhibition of human PDGFR alpha catalytic domain expressed in baculovirus assessed as substrate phosphorylation using fluorescence-labelled peptides as substrate at 95 uM after 90 mins by microfluidic peptide phosphorylation assay
[7] = target: Epidermal growth factor receptor (Homo sapiens) (UniProt P00533); experiment: Inhibition of human EGFR catalytic domain expressed in baculovirus assessed as substrate phosphorylation using fluorescence-labelled peptides as substrate at 95 uM after 90 mins by microfluidic peptide phosphorylation assay
[8] = target: Serine/threonine-protein kinase pim-1 (Homo sapiens) (UniProt P11309); experiment: Inhibition of human full length PIM1 expressed in baculovirus assessed as substrate phosphorylation using fluorescence-labelled peptides as substrate at 1000 uM after 90 mins by microfluidic peptide phosphorylation assay
Sequence of Serine/threonine-protein kinase pim-1 (Homo sapiens) (P11309 whole entry, looked up): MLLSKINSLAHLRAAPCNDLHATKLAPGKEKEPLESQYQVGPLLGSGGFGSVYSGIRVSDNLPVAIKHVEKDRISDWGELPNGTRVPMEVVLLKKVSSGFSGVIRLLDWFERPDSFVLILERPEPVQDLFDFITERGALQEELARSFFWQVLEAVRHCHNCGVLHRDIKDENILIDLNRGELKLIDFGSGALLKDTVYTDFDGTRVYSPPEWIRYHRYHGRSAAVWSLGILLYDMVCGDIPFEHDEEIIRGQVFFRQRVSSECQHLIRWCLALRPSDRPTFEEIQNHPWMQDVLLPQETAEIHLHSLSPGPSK

[9] = target: Tyrosine-protein kinase Lyn (Homo sapiens) (UniProt P07948); experiment: Inhibition of human full length LYN expressed in baculovirus assessed as substrate phosphorylation using fluorescence-labelled peptides as substrate at 1000 uM after 90 mins by microfluidic peptide phosphorylation assay
Sequence of Tyrosine-protein kinase Lyn (Homo sapiens) (P07948 2-512 limits assumed): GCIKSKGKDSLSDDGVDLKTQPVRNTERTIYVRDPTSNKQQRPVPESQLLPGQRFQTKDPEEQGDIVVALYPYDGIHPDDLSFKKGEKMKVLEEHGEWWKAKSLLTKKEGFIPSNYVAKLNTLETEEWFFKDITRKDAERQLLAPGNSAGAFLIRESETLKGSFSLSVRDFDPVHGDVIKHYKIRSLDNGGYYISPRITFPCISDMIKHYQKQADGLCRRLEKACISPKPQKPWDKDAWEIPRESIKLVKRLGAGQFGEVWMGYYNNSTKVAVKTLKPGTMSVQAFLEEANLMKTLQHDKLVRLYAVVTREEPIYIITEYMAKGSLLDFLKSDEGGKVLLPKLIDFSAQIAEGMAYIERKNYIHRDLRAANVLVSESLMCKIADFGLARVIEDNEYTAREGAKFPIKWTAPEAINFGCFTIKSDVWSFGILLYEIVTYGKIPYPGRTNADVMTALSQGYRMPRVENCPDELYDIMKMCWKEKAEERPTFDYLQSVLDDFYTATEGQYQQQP

[10] = organism: Homo sapiens; experiment: Inhibition of human full length PKA expressed in baculovirus assessed as substrate phosphorylation using fluorescence-labelled peptides as substrate at 70 uM after 90 mins by microfluidic peptide phosphorylation assay
[11] = target: Tyrosine-protein kinase ABL2 (Homo sapiens) (UniProt P42684); experiment: Inhibition of human truncated Arg expressed in baculovirus assessed as substrate phosphorylation using fluorescence-labelled peptides as substrate at 70 uM after 90 mins by microfluidic peptide phosphorylation assay
Sequence of Tyrosine-protein kinase ABL2 (Homo sapiens) (P42684 whole entry, the tested form may be a part): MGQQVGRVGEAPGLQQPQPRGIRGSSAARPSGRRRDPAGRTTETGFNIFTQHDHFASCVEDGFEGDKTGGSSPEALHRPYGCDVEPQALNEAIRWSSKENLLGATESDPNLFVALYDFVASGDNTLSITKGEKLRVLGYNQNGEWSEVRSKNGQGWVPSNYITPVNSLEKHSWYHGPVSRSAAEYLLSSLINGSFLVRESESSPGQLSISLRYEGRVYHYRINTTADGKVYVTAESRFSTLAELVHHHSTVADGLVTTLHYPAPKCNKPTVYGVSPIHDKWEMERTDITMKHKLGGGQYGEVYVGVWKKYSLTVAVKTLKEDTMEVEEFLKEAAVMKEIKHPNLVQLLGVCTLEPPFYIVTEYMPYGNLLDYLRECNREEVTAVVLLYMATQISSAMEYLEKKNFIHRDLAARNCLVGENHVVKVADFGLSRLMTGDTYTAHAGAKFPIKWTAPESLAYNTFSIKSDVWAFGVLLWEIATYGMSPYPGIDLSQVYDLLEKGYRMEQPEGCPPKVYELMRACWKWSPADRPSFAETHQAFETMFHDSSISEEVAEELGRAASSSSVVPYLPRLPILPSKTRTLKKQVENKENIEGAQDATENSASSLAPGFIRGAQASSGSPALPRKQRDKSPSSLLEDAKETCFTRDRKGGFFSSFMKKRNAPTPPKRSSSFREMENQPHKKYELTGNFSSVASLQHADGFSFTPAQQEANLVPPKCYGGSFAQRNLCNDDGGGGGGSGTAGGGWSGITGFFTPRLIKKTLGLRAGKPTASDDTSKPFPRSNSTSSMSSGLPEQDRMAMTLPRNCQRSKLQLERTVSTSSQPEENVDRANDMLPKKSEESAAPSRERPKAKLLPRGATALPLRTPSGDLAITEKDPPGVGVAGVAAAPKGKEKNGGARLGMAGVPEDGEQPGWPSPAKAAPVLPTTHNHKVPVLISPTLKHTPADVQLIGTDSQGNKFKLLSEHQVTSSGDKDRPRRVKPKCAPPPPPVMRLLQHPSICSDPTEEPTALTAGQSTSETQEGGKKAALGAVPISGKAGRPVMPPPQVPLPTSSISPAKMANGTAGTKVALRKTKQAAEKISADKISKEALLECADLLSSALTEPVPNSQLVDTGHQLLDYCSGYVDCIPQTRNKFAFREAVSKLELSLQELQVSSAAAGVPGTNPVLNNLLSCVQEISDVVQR

[12] = target: Ribosomal protein S6 kinase alpha-2 (Homo sapiens) (UniProt Q15349); experiment: Inhibition of human full length RSK3 expressed in baculovirus assessed as substrate phosphorylation using fluorescence-labelled peptides as substrate at 420 uM after 90 mins by microfluidic peptide phosphorylation assay
[13] = target: Protein kinase C eta type (Homo sapiens) (UniProt P24723); experiment: Inhibition of human truncated PKC eta expressed in baculovirus assessed as substrate phosphorylation using fluorescence-labelled peptides as substrate at 420 uM after 90 mins by microfluidic peptide phosphorylation assay
Sequence of Protein kinase C eta type (Homo sapiens) (P24723 whole entry, the tested form may be a part): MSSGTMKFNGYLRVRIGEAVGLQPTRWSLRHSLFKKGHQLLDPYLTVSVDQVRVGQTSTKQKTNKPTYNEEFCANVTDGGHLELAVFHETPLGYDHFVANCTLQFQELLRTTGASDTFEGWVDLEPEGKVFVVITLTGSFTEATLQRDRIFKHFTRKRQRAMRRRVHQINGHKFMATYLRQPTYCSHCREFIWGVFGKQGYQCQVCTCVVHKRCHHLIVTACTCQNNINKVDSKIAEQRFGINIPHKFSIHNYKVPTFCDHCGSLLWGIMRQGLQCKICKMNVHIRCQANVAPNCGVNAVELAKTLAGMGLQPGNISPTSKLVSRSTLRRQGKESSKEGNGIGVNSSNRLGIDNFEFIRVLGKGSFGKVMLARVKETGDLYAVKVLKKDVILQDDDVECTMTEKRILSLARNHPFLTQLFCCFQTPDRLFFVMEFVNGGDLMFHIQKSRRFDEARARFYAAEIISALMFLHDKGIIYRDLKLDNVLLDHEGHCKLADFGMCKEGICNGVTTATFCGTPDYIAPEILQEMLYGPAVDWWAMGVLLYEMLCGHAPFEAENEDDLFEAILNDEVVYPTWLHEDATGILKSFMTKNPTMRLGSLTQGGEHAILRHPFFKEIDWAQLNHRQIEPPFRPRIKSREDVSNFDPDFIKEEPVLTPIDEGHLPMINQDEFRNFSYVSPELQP

Compound: Clc1ccc(C2(c3ccc(-c4ncnc5[nH]cnc45)cc3)CCNCC2)cc1
- inhibition [1]: 80%
- inhibition [2]: 0.5%

Compound: NC1CCN(c2ncnc3[nH]ccc23)CC1
- inhibition [3]: 0%

Compound: NCC1CN(c2ncnc3[nH]c4cnccc4c23)CCO1 (stereo not drawn)
- inhibition [4]: 80%
- inhibition [5]: 15.5%

Compound: NCCc1ccc(-c2ncnc3[nH]cnc23)cc1
- inhibition [6]: 37%
- inhibition [7]: 19.5%

Compound: c1cnc2[nH]ccc2c1
- inhibition [8]: 20%
- inhibition [9]: 31.5%

Compound: CNCc1ccc(-c2ncnc3[nH]cnc23)cc1
- inhibition [10]: 96%
- inhibition [11]: 33%

Compound: c1nc(N2CCOCC2)c2nc[nH]c2n1
- inhibition [12]: 98%
- inhibition [13]: 82%
